From US20200308192A1, “NOVEL THIAZOLO[5,4-D]PYRIMIDINE DERIVATIVES AS INVERSE AGONISTS OF A2A ADENOSINE RECEPTORS” (Universita degli Studi di Ferrara, priority 2016, published 2020)
Like-named read-outs stand apart in the source and are kept apart here.

What was measured:
[1] = system: breast cancer cells MRMT-1; assay: Cell proliferation assay (DELFIA BrdU); type: cell-based; conditions: 48 hours; for Effect on CGS 21680-induced proliferation of cancer cells: MRMT-1, compound 100 nM pre-treatment, CGS 21680 100 nM
Description: For the experiments of cellular proliferation, the DELFIA® kit was used and a multimode plate reader Ensight® from PerkinElmer. The DELFIA® (dissociation-enhanced lanthanide fluorescence immunoassay) assay is based on Time-Resolved Fluorescence (TRF) and on the incorporation of the 5-bromo-2-deoxyuridine (BrdU) in the DNA filaments recently synthesised by the proliferating cells seeded on microplates. The incorporated BrdU is detected by using a monoclonal antibody conjugated with europium, a long-lived chelated lanthanide, and the fluorescence measured is proportional to the synthesis of DNA in the cells population present in each well. The MRMT-1 cells, breast cancer cells, were pre-treated with some of the antagonists under evaluation at the concentration of 100 nM (compounds 1, 5, 6, 7, 10 of the present invention) for 30 minutes, then stimulated with CGS 21680 100 nM and after 30 minutes the solution of BrdU (10 μl/well) was added. At the end of the incubation period of 48 hours 100 μl/well of Anti-BrdU-Eu (0.5 μg/ml) were added and the cells were incubated for 120 minutes at room temperature. After 4 washings, 200 μl of DELFIA® stimulator were added at room temperature for 15 minutes and the Eu-fluorescence was detected by means of the Ensight® reader from Perkin Elmer (Perkin Elmer, Milan, Italy).

[2] = system: Female CD1 mice; assay: Writhing test (acetic acid-induced abdominal constrictions); type: in vivo; conditions: for ED50: Mus musculus, ip, 15 minutes before acetic acid; for Dose-response curve, Writhing Test: P<0.001, one-way ANOVA
Experimental: (§1) Female CD1 mice (22-24 g) were obtained from Charles River (Milano, Italia). The animals were kept under standard environmental temperature conditions (22±2° C.) and under moisture-controlled conditions with 12 hours light/dark cycle and food and water ad libitum. The animals were acclimated to the laboratory settings for at least 1 hour before testing and were used only once throughout the experiments. All the procedures used in the present study were carried out in accordance with the European Communities Council Directives (86/609/EEC) and the National Laws and Policies (D.L.116/92) after authorization from the Italian Ministry for Health (4/2014-B). In addition, the experimental procedures were in agreement with the current guidelines for the care of laboratory animals and the ethical guidelines for investigations of experimental pain in conscious animals (Couto M. Methods Mol Biol 2011; 770:579-599).
The acetic acid-induced writhing response was performed after intraperitoneal injection of 10 ml/Kg of 0.6% acetic acid solution. The response to the abdominal constrictions induced by acetic acid was evaluated after the intraperitoneal injection of 10 ml/kg of a 0.6% solution of acetic acid. The compounds under evaluation were dissolved in DMSO and then diluted in a saline solution. The carrier consists of saline solution and 5% of DMSO. A writhe is indicated by stretching of the abdomen followed by the extension of the hind limbs. The animals (8 mice per group) were placed singly in a glass cylinder and the number of writhing episodes of abdominal contractions was counted in a 30 minutes period. The compounds were administered intraperitoneally 15 minutes before injection of acetic acid solution.
(§2) The statistical analysis of the data was performed using ANOVA followed by Dunnett's test. […] KH and KL were obtained by using a two sites binding model and Graph PAD Prism (San Diego, Calif., USA). The values of IC50 obtained in the cAMP assays were calculated by non-linear regression analysis using the equation for a sigmoid concentration-response curve. All data are expressed as the mean±SEM of four independent experiments each performed in duplicate for in vitro assays and n=8-10 mice/group for in vivo assays.

[3] = target: T1, human adenosine A2B receptor (Homo sapiens, UniProt P29275); assay: cAMP assay, inhibition of NECA-stimulated cAMP levels in hA2B CHO cells; conditions: read-out: Receptor hA2B IC50; cAMP stimulated by NECA (100 nM); mean ± SEM
T1 sequence (P29275 1-332): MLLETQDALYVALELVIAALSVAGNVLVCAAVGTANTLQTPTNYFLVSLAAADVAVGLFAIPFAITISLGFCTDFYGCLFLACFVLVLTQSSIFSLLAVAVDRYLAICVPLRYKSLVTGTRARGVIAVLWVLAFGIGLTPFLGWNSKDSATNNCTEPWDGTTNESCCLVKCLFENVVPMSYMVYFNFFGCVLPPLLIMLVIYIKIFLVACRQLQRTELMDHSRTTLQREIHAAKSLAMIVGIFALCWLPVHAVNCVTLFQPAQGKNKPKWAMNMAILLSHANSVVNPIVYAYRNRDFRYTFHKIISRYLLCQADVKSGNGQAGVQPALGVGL

[4] = target: T2, human adenosine A1 receptor (Homo sapiens, UniProt P30542); assay: Competition binding, [3H]-DPCPX, hA1 CHO membranes; conditions: read-out: Receptor hA1 Ki, mean ± SEM
T2 sequence (P30542 1-326): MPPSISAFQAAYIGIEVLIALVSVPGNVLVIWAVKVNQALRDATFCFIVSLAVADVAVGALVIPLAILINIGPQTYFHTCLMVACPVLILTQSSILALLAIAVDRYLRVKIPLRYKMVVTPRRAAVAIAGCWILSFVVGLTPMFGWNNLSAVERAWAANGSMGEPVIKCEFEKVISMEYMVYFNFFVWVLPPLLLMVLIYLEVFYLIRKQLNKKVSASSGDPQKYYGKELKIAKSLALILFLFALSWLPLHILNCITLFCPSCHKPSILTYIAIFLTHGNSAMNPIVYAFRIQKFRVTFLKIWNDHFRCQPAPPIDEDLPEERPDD

[5] = target: T3, human adenosine A3 receptor (Homo sapiens, UniProt P0DMS8); assay: Competition binding, [125I]-ABMECA, hA3 CHO membranes; conditions: mean ± SEM
T3 construct: expressed in transfected cells; host or cells: CHO cells (membrane preparation)
T3 sequence (P0DMS8 1-318): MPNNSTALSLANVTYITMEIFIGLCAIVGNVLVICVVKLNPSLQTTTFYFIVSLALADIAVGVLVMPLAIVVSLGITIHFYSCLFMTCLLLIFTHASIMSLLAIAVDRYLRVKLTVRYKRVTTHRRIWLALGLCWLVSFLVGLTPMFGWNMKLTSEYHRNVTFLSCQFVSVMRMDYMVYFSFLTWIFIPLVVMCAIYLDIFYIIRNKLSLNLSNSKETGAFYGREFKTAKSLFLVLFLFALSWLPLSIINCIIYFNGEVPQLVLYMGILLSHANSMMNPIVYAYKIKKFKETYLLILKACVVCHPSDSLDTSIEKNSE

[6] = system: Female CD1 mice; assay: Warm-water tail immersion test; type: in vivo; conditions: intraperitoneal
Experimental: as §1
The warm-water tail immersion assay was performed using a water thermostated bath at a temperature maintained at 52° C. The compounds under evaluation were dissolved in DMSO and then diluted in saline solution. The carrier consists of saline solution and 5% of DMSO. Before intraperitoneally injecting the compound, the natural time of response of the mice was determined and the distal part of the tail was then immersed in the thermostated bath. The latency in responding to the heat stimulus with a vigorous flexion of the tail was measured by means of a manual stopwatch. A 20 seconds maximum cut-off time was imposed to prevent tissue damage. The latency of the tail withdrawal was then tested 15 minutes after injection of the compound.
as §2

[7] = target: T4, human adenosine A2A receptor (Homo sapiens, UniProt P29274); assay: Competition binding, [3H]-ZM 241385, hA2A CHO membranes
[8] = target: T4, human adenosine A2A receptor; assay: cAMP assay in hA2A CHO cells, basal or with CGS 21680; type: cell-based; design: expressed in transfected cells; host or cells: CHO cells; conditions: for IC50: mean ± SEM
Experimental: For the membranes preparation the culture medium was removed, and the cells were washed with a saline phosphate-buffered solution collected with hypotonic buffer (5 mM Tris HCl, 1 mM EDTA, pH 7.4).
CHO cells transfected with the adenosine receptors were washed with a phosphate-buffered saline solution, detached with trypsin and centrifuged for 10 minutes at 200 g. […] The reaction was terminated by addition of cold 6% trichloroacetic acid (TCA). The TCA suspension was centrifuged at 2000 g for 10 minutes at 4° C. and the supernatant was extracted four times with diethyl ether with water. The final aqueous solution was tested for the cAMP levels by a competition protein binding assay with a cAMP-binding protein. The standard samples of cAMP (0-10 pmoli) were added to each test tube containing the incubation buffer (trizma base 0.1 M, aminophylline 8.0 mM, 2 mercaptoethanol 6.0 mM, pH 7.4) and [^3H]-cAMP. The binding protein previously prepared from beef adrenals, was added to the samples previously incubated at 4° C. for 150 minutes, and after the addition of charcoal were centrifuged at 2000 g for 10 min.
as §2

[9] = CGS 21680 (10 nM), read-out: IC50 cAMP, in presence of CGS 21680
[10] = CGS 21680 (10 nM), read-out: Emax cAMP, in presence of CGS 21680
[11] = basal cAMP, read-out: IC50 cAMP, in absence of CGS 21680
[12] = efficacy versus basal cAMP production, read-out: Emax cAMP, in absence of CGS 21680

T4 sequence (P29274 whole entry): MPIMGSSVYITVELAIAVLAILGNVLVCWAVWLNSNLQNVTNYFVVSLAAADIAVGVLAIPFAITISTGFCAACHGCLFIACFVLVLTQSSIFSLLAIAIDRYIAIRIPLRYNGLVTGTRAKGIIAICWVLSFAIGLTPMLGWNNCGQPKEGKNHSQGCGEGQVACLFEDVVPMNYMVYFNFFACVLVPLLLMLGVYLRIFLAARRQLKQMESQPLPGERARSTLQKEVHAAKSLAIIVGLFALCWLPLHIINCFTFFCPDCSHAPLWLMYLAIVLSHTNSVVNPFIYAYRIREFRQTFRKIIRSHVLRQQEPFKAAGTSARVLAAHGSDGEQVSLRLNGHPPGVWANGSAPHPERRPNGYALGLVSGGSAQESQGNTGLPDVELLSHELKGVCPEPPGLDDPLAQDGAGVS

| SMILES | Effect on proliferation of cancer cells ([1]; MRMT-1, CGS 21680 100 nM) | ED50 ([2]; intraperitoneal) | Dose-response curve, Writhing Test [2] | ED50 times lower than ZM 241385, Writhing Test ([2]; intraperitoneal) | ED50 times lower than morphine, Writhing Test ([2]; intraperitoneal) | IC50 [3] | Ki [4] | Ki [5] | ED50 ([6]; Mus musculus, ip, 0.25 h, 52° C., 15 minutes after injection) | Anti-nociceptive activity, tail immersion test [6] | Minimum effective dose, tail immersion test [6] | Ki [7] | Anti-nociceptive activity, Writhing Test ([2]; intraperitoneal) | Effect on CGS 21680-induced proliferation of cancer cells [1] | IC50 [8, 9] | Emax [8, 10] | IC50 [8, 11] | Emax [8, 12] |
| --- | --- | --- | --- | --- | --- | --- | --- | --- | --- | --- | --- | --- | --- | --- | --- | --- | --- | --- |
| CCNC(=O)[C@H]1O[C@@H](n2cnc3c(N)nc(NCCc4ccc(CCC(=O)O)cc4)nc32)[C@H](O)[C@@H]1O [CGS 21680, reference compound] | able to increase the proliferation of the cancer cells | – | – | – | – | – | – | – | – | – | – | – | – | – | – | – | – | – |
| COc1ccccc1CNc1nc(N)c2nc(-c3ccco3)sc2n1 [Compound 1, 2-(furan-2-yl)-N^5-(2-methoxybenzyl)[1,3]thiazolo[5,4-d]pyrimidin-5,7-diamine] | – | 0.0328 ± 0.0021 mg/kg | dose-dependent effect | approximately 42 times | 3.75 times | 313 ± 29 nM | 3.54 ± 0.32 nM | 36 ± 3 nM | 0.134 ± 0.011 mg/kg | highest analgesic activity | 0.01 mg/kg | 6.45 ± 0.57 nM | – | – | – | – | – | – |
| COc1cccc(CNc2nc(N)c3nc(-c4ccco4)sc3n2)c1 [Compound 3, 2-(furan-2-yl)-N^5-(3-methoxybenzyl)[1,3]thiazolo[5,4-d]pyrimidin-5,7-diamine] | – | – | dose-dependent effect | – | – | 452 ± 42 nM | 8.16 ± 0.72 nM | 92 ± 8 nM | – | – | – | 26 ± 2 nM | potency similar to morphine | – | – | – | – | – |
| Nc1nc(NCc2ccco2)nc2sc(-c3ccco3)nc12 [Compound 5, 2-(furan-2-yl)-N^5-(furan-2-ylmethyl)[1,3]thiazolo[5,4-d]pyrimidin-5,7-diamine] | – | – | – | – | – | 82 ± 9 nM | 38 ± 4 nM | 4.72 ± 0.38 nM | – | – | – | 1.73 ± 0.15 nM | – | able to reduce the proliferation of cancer cells | 0.04 ± 0.004 nM | 133 ± 13% | 0.0016 ± 0.0002 nM | 64% |
| Nc1nc(NCc2cccs2)nc2sc(-c3ccco3)nc12 [Compound 6, 2-(furan-2-yl)-N^5-(thiophen-2-ylmethyl)[1,3]thiazolo[5,4-d]pyrimidin-5,7-diamine] | – | – | – | – | – | 75 ± 8 nM | 12.5 ± 1.1 nM | 6.43 ± 8 nM | – | – | – | 3.82 ± 0.31 nM | – | able to reduce the proliferation of cancer cells | 0.036 ± 0.003 nM | 132 ± 12% | 0.0017 ± 0.0002 nM | 61% |
| Nc1nc(NCc2cccnc2)nc2sc(-c3ccco3)nc12 [Compound 7, 2-(furan-2-yl)-N^5-(pyridin-3-ylmethyl)[1,3]thiazolo[5,4-d]pyrimidin-5,7-diamine] | – | – | – | – | – | 109 ± 11 nM | 7.12 ± 0.65 nM | 18.2 ± 1.7 nM | – | – | – | 0.68 ± 0.05 nM | – | able to reduce the proliferation of cancer cells | 0.059 ± 0.006 nM | 126 ± 12% | 0.011 ± 0.001 nM | 61% |
| Nc1nc(NCCc2cccs2)nc2sc(-c3ccco3)nc12 [Compound 10, 2-(furan-2-yl)-N^5-(2-(thiophen-2-yl)ethyl)[1,3]thiazolo[5,4-d]pyrimidin-5,7-diamine] | – | – | – | – | – | 112 ± 11 nM | 4.92 ± 0.37 nM | 65 ± 6 nM | – | – | – | 18 ± 2 nM | – | able to reduce the proliferation of cancer cells | 0.045 ± 0.004 nM | 138 ± 13% | 0.0064 ± 0.0005 nM | 62% |
| Nc1nc(NCCc2ccc(O)cc2)nc2nc(-c3ccco3)nn12 [ZM 241385, reference compound] | – | 1.37 ± 0.108 mg/kg | dose-dependent effect | – | – | – | – | 683 ± 64 nM | – | no effect up to 10 mg/kg | – | – | – | – | – | – | – | – |
| CN1CC[C@]23c4c5ccc(O)c4O[C@H]2[C@@H](O)C=C[C@H]3[C@H]1C5 [morphine, reference compound] | – | 0.123 ± 0.01 mg/kg | dose-dependent effect | – | – | – | – | – | – | – | – | – | – | – | – | – | – | – |
